# In patent publication US20070078097A1, “Method for treating intermittent claudication comprising the administration of propionyl L-carnitine and a concomitant physical training” (priority 2005, published 2007):
# Columns and labels:
# [1] = test system: patients with Intermittent Claudication (Leriche-Fontaine Class II); experiment: Maximum walking distance on treadmill, three phase III placebo-controlled studies; type: in vivo, human; details: for MWD at Month 6/Endpoint, Mean / MWD at Month 6/Endpoint, Median: PLC 2 g/day oral, 3 km/h; for MWD Change from Baseline to Endpoint, Mean / MWD Change from Baseline to Endpoint, Median: PLC 2 g/day
# From the text: (§1) Three parallel, randomized, double-blind, placebo-controlled, phase III studies in patients with Intermittent Claudication (Leriche-Fontaine Class II) represent the basis for the above considerations. They are study ST 261 201 90 INT (hereinafter referred to as the European study); study ST 94 301 (hereinafter referred to as the Hiatt study); and ST 93 301, hereinafter referred to as the Porter study).
# (§2) Diagnosis and main criteria for inclusion for these studies were similar, as follows: intermittent claudication of ascertained vascular origin; age between 40 and 80 years; lesions at iliac-femoral and/or femoro-popliteal level confirmed by angiographic or Doppler examination; no pain at rest (Leriche-Fontaine Class III) or ulcerative lesions (Leriche-Fontaine Class IV); history of claudication >1 year; dietary regime and alcohol intake stable during the study. All patients were strongly encouraged to stop smoking and exercise actively. The latter recommendation was to be achieved either through a supervised, vascular rehabilitation-based program, or via an unsupervised, home-based program.
# A total of 316 subjects (PLC, 153 subjects; placebo, 163 subjects) were randomized in the primary intention-to-treat population (ITT) of the European study, which was conducted in 39 centers in West and East Europe, and tested PLC (2 g/day) for 12 months vs. placebo. Patients had to have a maximum walking distance (MWD) at baseline between 50-400 m. and variability over the three treadmill tests carried-out at baseline of ≦25%.
# A total of 161 subjects (PLC, 85 subjects; placebo, 76 subjects) were randomized in the ITT population of the Hiatt study, which was performed in 10 centers in the USA and Russia, and tested PLC (2 g/day for 6 months) versus placebo.
# A total of 155 subjects (ITT population: PLC, 80 subjects; placebo, 75 subjects) were randomized in the 6-month, Porter study, which was conducted in 16 US centers and tested PLC 2 g/day vs. placebo as its primary target population. All randomized patients had baseline MWD between 50-250 m and variability ≦25%.
# These phase III studies evaluated physical performance as their primary efficacy parameter. This was assessed by the maximum walking capacity of patients on a treadmill: the European study used a fixed treadmill with 7% slope and 3 km/hour speed; the Hiatt study used a graded treadmill, starting at 0% slope and increasing by 2% every 2 minutes, with a 2 mph speed; the Porter study used a fixed treadmill with 12% slope and 2 mph speed.
# Given the non-normality of response distributions for MWD, the comparison between PLC and placebo-treated patients was based on a non-parametric test, i.e., the Cochrane-Mantel-Haenszel test on the within-center, standardized mid-ranks (MODRIDITS) of changes over baseline, stratified by site.
# [2] = test system: patients with claudication; details: orally given; randomised placebo-controlled trials of the literature; cited from earlier work
# platelet = details: literature (Pignatelli et al. 2003); cited from earlier work
# [3] = test system: patients with Intermittent Claudication (Leriche-Fontaine Class II); experiment: Quality of life questionnaires (PAD-related, SF-36, WIQ), O'Brien global score; type: in vivo, human
# From the text: as §1, §2
# The above studies also assessed quality of life (QoL) as their main secondary efficacy parameter: the European study used the ad-hoc validated PAD-related questionnaire, while the Hiatt and Porter studies used both the very well-known and validated Health Status Survey-Short Form 36 (SF-36) and the Walking Impairment Questionnaire (WIQ).
# Similar results were obtained also when considering QoL. Since several questionnaires were used in each study, a global summary statistic was used in order to deal with this issue, as well as with the multiplicity of domains present in each of these questionnaires, i.e., the O'Brien test.
# claudicant patients = details: six patients; intravenous 3 g bolus followed by infusion of 2 mg/Kg/man for 30 minutes; Brevetti et al. 1988; cited from earlier work
# [4] = ITT with concomitant physical exercise, N = 54, P-value vs placebo 0.000
# [5] = ITT without concomitant physical exercise, N = 264, P-value vs placebo 0.777
# [6] = ITT with concomitant physical exercise, PLC N = 54, P-value vs placebo <0.001
# [7] = ITT without concomitant physical exercise, PLC N = 261, P-value vs placebo 0.142
Compound,"MWD at Month 6/Endpoint, Mean ([1]; ITT with concomitant physical exercise, N = 54, converted to treadmill 7% slope, baseline mean 249.7) [m]","MWD at Month 6/Endpoint, Median ([1]; ITT with concomitant physical exercise, N = 54, treadmill 7% slope, baseline median 239.2) [m]","MWD Change from Baseline to Endpoint, Mean [1, 4] [m]","MWD Change from Baseline to Endpoint, Median [1, 4] [m]","MWD at Month 6/Endpoint, Mean ([1]; ITT without concomitant physical exercise, N = 264, treadmill 7% slope, baseline mean 205.6) [m]","MWD at Month 6/Endpoint, Median ([1]; ITT without concomitant physical exercise, N = 264, treadmill 7% slope, baseline median 171.7) [m]","MWD Change from Baseline to Endpoint, Mean [1, 5] [m]","MWD Change from Baseline to Endpoint, Median [1, 5] [m]","net PLC advantage over placebo in exercise performance at endpoint ([1]; overall ITT subjects of the three studies, p=0.08) [m]",walking distance in patients with claudication [2],arachidonic acid accumulation in the phospholipids of platelet membrane (platelet),platelet thromboxane A2 and O2 formation (platelet),"Change in O'Brien scores for QoL questionnaires, Baseline to Endpoint, Mean [3, 6]","Change in O'Brien scores for QoL questionnaires, Baseline to Endpoint, Median [3, 6]","Change in O'Brien scores for QoL questionnaires, Baseline to Endpoint, Mean [3, 7]","Change in O'Brien scores for QoL questionnaires, Baseline to Endpoint, Median [3, 7]","QoL at endpoint compared to the placebo group ([3]; overall ITT subjects, p<0.001)",increase of venous lactate induced by walking test (claudicant patients)
"CCC(=O)O[C@H](CC(=O)[O-])C[N+](C)(C)C [PLC, propionyl L-carnitine]",410.8,400.9,161.1,154.8,325.3,225.5,119.7,36.6,18.2,significant increase,inhibits,reduction,0.56,0.54,0.51,0.50,significant improvement,–
"C[N+](C)(C)C[C@H](O)CC(=O)[O-] [levocarnitine, L-carnitine]",–,–,–,–,–,–,–,–,–,significant increase,–,–,–,–,–,–,–,lowered
